According to ChEMBL document CHEMBL1201862, “PubChem BioAssay data set” (2004):
The source made the active and inactive calls.

Key:
[1] = target: T1, Endoribonuclease toxin MazF (Escherichia coli K-12, UniProt P0AE70); experiment: activation of MazEF endoribonuclease cleavage – biochemical, fluorescence, single-stranded RNA substrate, uHTS hits, dose response (AID 588481); format: functional
T1 sequence (P0AE70 whole entry): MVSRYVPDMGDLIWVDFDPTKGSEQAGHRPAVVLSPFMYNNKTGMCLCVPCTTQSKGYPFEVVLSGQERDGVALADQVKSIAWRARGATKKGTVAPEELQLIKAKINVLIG

[2] = target: T1, Endoribonuclease toxin MazF; experiment: substrate-only fluorescence increase artefacts – biochemical, single-stranded RNase substrate, counter-screen for MazEF activator project, dose response (AID 588502); format: functional
H9c2 = experiment: cells; format: functional, cell-based; details: Rattus norvegicus, H9c2, Myocardium;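 also: confirmatory concentration-response retest of ultra-high-throughput screening hits for modulation of myocardial damage; cell death induced by hydrogen peroxide oxidative stress; compound pretreatment for 60 min then peroxide exposure for 2 h; potency is for protecting the cells against peroxide damage rather than for killing them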
Cytochrome P450 3A4 = Cytochrome P450 3A4 (Homo sapiens, UniProt P08684); details: Potency;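 also: confirmatory qHTS run detecting inhibitors and substrates of CYP3A4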
Chain of Cytochrome P450 3A4 (P08684 whole entry): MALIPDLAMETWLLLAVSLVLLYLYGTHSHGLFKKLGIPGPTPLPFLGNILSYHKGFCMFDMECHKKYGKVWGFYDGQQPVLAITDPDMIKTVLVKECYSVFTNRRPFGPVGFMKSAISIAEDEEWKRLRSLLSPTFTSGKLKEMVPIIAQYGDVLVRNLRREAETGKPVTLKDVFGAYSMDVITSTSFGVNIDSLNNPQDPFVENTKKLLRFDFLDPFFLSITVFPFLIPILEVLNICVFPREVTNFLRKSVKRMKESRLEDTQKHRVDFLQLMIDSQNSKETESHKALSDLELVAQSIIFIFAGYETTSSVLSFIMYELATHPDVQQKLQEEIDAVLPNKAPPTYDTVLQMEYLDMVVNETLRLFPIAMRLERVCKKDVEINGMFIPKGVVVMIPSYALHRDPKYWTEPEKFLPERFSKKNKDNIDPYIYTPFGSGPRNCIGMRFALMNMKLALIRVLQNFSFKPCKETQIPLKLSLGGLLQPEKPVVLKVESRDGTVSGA

Large T antigen = Large T antigen (Simian virus 40, UniProt P03070); format: functional, Betapolyomavirus macacae;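 also: Confirmatory-stage PubChem screen for compounds that inhibit SV40 T antigen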
Chain of Large T antigen (P03070 whole entry): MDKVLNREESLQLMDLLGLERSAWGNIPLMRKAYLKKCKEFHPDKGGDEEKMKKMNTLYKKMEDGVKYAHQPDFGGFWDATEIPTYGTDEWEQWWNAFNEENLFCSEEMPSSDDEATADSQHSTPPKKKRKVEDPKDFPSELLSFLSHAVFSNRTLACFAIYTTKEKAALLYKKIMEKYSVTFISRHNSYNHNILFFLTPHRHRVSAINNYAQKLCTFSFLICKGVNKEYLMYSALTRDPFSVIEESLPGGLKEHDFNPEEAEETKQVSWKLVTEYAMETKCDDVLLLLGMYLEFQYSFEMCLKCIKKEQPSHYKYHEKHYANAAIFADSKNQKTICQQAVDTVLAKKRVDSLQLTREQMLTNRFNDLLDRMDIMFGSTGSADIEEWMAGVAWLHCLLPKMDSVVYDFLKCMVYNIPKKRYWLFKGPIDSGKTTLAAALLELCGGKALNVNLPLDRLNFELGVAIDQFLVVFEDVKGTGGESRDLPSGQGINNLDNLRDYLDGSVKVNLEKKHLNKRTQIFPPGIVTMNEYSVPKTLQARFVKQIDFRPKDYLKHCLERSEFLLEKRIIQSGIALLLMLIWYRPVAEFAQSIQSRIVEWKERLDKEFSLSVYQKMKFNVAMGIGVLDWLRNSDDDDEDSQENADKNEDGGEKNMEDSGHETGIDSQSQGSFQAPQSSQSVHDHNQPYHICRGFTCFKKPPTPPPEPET

[3] = target: Heat shock protein HSP 90-alpha (Homo sapiens, UniProt P07900); format: functional, organism-based
[4] = NIH-3T3 fibroblast cytotoxicity, dose response, cytotoxicity control, cell-based, fluorescence, Alamar Blue, secondary assay (AID 2327); format: functional;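 also: NIH-3T3 mouse fibroblasts cultured with fluconazole at 8 µg/mL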
BJ [5] = experiment: BJ-TERT fibroblast viability loss – cell-based, RAS-independent, luminescence, dose response (AID 1933); format: functional; details: Homo sapiens
BJ [6] = experiment: cells; format: functional, cell-based; details: Homo sapiens
[7] = fluconazole-exposed Candida albicans growth modulators – fluorescence, retest, confirmation (AID 2467); format: functional, cell-based
BJ [8] = experiment: BJ-TERT-LT-ST fibroblast viability loss – cell-based, RAS-independent, luminescence, dose response (AID 1935); format: functional; details: Homo sapiens;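 also: BJ fibroblasts immortalized with TERT plus LT and ST oncogenes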
[9] = DRD fibroblast viability loss – cell-based, non-viral oncogenic, luminescence, dose response (AID 1934); format: functional; details: Homo sapiens
INS1 = experiment: INS-1E survival protection against cytokine death – cell-based, luminescence, retest, dose response (AID 449756); format: functional; details: Rattus norvegicus;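 also: cell death triggered by IL-1 beta plus TNF-alpha plus IFN-gamma mixture; protective hits raise ATP signal compared with cytokine alone wells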
[10] = microbe, parasite or virus in culture; format: functional; details: Mycobacterium tuberculosis

CCc1ccc(C2=NN(S(C)(=O)=O)C(c3cccs3)C2)cc1 (stereo unspecified)
EC50 [1]: > 99 µM (inactive) | EC50 [2]: > 99 µM (inactive)

Cc1nc(OCc2ccccc2)c2ccccc2n1
IC50 (H9c2): > 79 µM (inactive)

CC(=O)Oc1cc2c(c(C)c1OC(C)=O)CC=C1[C@]3(C)CC[C@]4(C)CC[C@@](C)(C(=O)O)CC4[C@]3(C)CC[C@]12C (stereo partly specified)
AC50 (Cytochrome P450 3A4): 31.6 µM (inconclusive)

N#CSCC(=O)c1cccc2ccccc12
IC50 (Large T antigen): 20.6 µM (active) | AC50 [3]: 1.61 µM (active)

COc1ccc(C2/C=C\CN(S(=O)(=O)c3cccc4cccnc34)CC(=O)N2Cc2ccc(F)cc2)cc1 (stereo unspecified)
IC50 (H9c2): > 79 µM (inactive)

Oc1nc(CN2CCCC2)nc2sc3c(c12)CCC3
IC50 (H9c2): > 79 µM (inactive)

Clc1nccc2c1ccc1ccccc12
AC50 (Cytochrome P450 3A4): 12.6 µM (inconclusive)

COc1ccc(NC(=O)C(OC(=O)c2ccc([N+](=O)[O-])o2)c2ccccc2)cc1Cl (stereo unspecified)
IC50 (H9c2): > 79 µM (inactive)

CCN(CC)C(=O)c1ccc2c3c(cccc13)C(=O)N(CCc1ccc(OC)c(OC)c1)C2=O
IC50 (H9c2): > 79 µM (inactive)

CCn1cc(/C=C/c2cc[n+](C)cc2)c2ccccc21
EC50 [4]: > 150 µM (inconclusive) | EC50 (BJ [5]): 23.8 µM (active) | EC50 (BJ [6]): > 150 µM (not active) | EC50 [7]: 0.946 µM (active) | EC50 (BJ [8]): > 150 µM (not active) | EC50 [9]: > 150 µM (not active) | AC50 (INS1): 4.58 µM (active)

CCOC(=O)c1ccc(CC(=O)c2oc3cc(O)ccc3c2C)o1
EC50 [1]: > 99 µM (inactive) | EC50 [2]: 81.2 µM (inactive)

COc1ccc(OCC(=O)Nc2c(C(=O)N(CCN(C)C)Cc3ccco3)oc3ccccc23)cc1
EC50 [4]: > 160 µM (inactive) | EC50 [7]: > 38 µM (not active) | CC50 [10]: > 40 µM (active)

CCCn1c(-c2ccc(F)cc2)nc2c(NC(C)CN(C)C)nc(C)nc21 (stereo unspecified)
AC50 (Cytochrome P450 3A4): 20 µM (inconclusive)

CCCCCCCC#Cc1ccccc1/C=N/[S+]([O-])C(C)(C)C (stereo unspecified)
AC50 (Cytochrome P450 3A4): 3.16 µM (inconclusive)

NC(=O)c1c(NC(=O)Cn2nc(C(=O)O)c3ccccc3c2=O)sc2c1CCC2
IC50 (H9c2): > 79 µM (inactive)
